This note sets out measurements from article PMC9578445, “Association of respiratory failure with inhibition of NaV1.6 in the phrenic nerve” (Channels, 2022).

The IC50 is the concentration that gives 50% inhibition. A low value points to greater potency. As a reminder, the inhibition is the change of the read-out against control, counted positive when it falls.

For series [1], the target named is T1, Human NaV1.5 (Homo sapiens, UniProt Q14524).
T1 construct: expressed in transfected cells
Put plainly: PatchXpress automated patch clamp, depolarized-state protocol. It counts as cell-based. Conditions: HEK 293 cells. How it is done: Sodium currents were recorded from recombinant Human Embryonic Kidney 293 cell lines stably overexpressing the respective sodium channel type (NaV1.2, 1.5, 1.4, 1.6, 1.7). Recording solutions were comprised of the following (in mM): Internal solution: 30 CsCl, 5 HEPES, 10 EGTA, 120 CsF, 5 NaF, 2 MgCl2, pH = 7.3 with CsOH; External solution 1: 40 NaCl, 120 NMDG, 1 KCl, 0.5 MgCl2, 5 HEPES, 2.7 CaCl2, pH to 7.3 with NaOH, used for NaV1.5 recordings; External solution 2: 150 NaCl, 5 KCl, 2 CaCl2, 1 MgCl2, 10 HEPES, 12 Dextrose, pH 7.3 with NaOH, used for NaV1.7, 1.6, 1.4, and 1.2 recordings.
Whole-cell currents were recorded from cells stably expressing NaV channels using the PatchXpress 7000A automated patch clamp platform (Molecular Devices, LLC; Sunnyvale, CA). A portable air-conditioning unit was installed on the PatchXpress instruments to maintain the temperature of the headstage at 21°C. Cells were voltage clamped at −60 mV for cell detection and sealing. At the start of each recording, a voltage curve and an inactivation curve was run for each cell to determine the voltage at which 50% of the channels reside in the inactivated state (V0.5 inact). The voltage curve was used to determine if the cell was adequately clamped; cells with currents larger than 10nA or with space clamp issues were not used further.
NaV1.5: Compound potency was measured in a depolarized-state protocol where the holding potential for each cell was set to V0.5inact – 20 mV. The pulse protocol consisted of an 8 sec prepulse to V0.5inact + 7 mV, followed by a 2 ms hyperpolarization to −120 mV and a 10 ms test pulse to −10 mV. First, vehicle (0.3% DMSO) was added to establish a baseline measurement. Once baseline was established, a test compound was added. Cells were exposed to compound for 5 minutes at V0.5inact – 20 mV. Compound washout was performed to measure the recovery of the sodium currents from inhibition.
Recordings were included for analysis when current amplitude reached steady-state in vehicle, compound inhibition was concentration-dependent and currents recovered during wash-out periods. Raw data from PatchXpress experiments were retrieved from the database and analyzed using the DataXpress 2 software (Molecular Devices).
At least 3 concentrations (3–9 replicates per concentration) were tested and at least one concentration had to cause 20–80% current inhibition.
In general terms: The patch-clamp technique gives a direct electrical read-out from membranes.

Series [2] concerns rat diaphragm with the phrenic nerve attached. Put plainly: Rat hemisected diaphragm (HMD) assay, ex vivo. Conditions: for IC50: relative to 3 μM d-Tubocurarine relaxation = 100%; for inhibition in rat HMD assay: at both 10 and 30 μM. From the text: Wistar derived male or female rats weighing 450 ± 50 g were euthanized by CO2 overexposure. The diaphragm with the phrenic nerve attached was removed and placed into a tissue recording chamber containing Krebs solution pH 7.4; (composition in g/L: NaCl 6.89, KCl 0.35, CaCl2 0.277, KH2PO4 0.163, MgSO4 · 7H2O 0.296, NaHCO3 2.1 and glucose 1.8). A piece of cotton was attached to the top of the phrenic nerve over the jaw electrodes. A second piece of cotton was attached to the tip of the tendinous tissue at the apex of the diaphragm preparation for attachment to an isometric transducer under 1 g tension. The rib of the diaphragm preparation was secured to the bottom of the jaw electrodes. […] The recording chamber was placed into a water bath kept at a temperature of 32°C by means of a suitable thermoregulator consisting of a thermostat and heating elements in addition to a water circulator.
The isometric transducer was connected to an amplifier and the tissue response was recorded on a two-pen recorder set at 1 volt. Field stimulation [S48 Stimulator (GRASS) set at 0.2 Hz (12 pulses per minute), 0.5 ms pulse duration at 70% of maximum voltage (about 3 to 5 volts)] delivered to two circle platinum electrodes (0.2 cm in diameter) was applied for transmural tissue stimulation. Each tissue preparation was washed three times in Krebs solution every 15 minutes for a 60 minute equilibration period and permitted to develop contractions. D-Tubocurarine (300 µM dissolved in 0.1 mL distilled water for a final 3 µM bath concentration) was added to establish an isometrically recorded control relaxation response ranging from one to two centimeters and corresponding to 60–70% of maximal relaxation. […] The tissue was then washed periodically until the contraction returns to the baseline value.
Sixty minutes later, the test compound was added (e.g. 30 mM in 0.01 mL vehicle of 100% DMSO, for final concentration of 30 µM test compound and 0.1% DMSO). A test compound recorded relaxation response of 50% or more (≥50%) within 5 minutes, relative to the 3 µM d-Tubocurarine control response, indicates neuromuscular blocking activity.

A short description of series [3]: Plasma exposure in rat CV/R assay. Type of series: in vivo. Conditions: for concentration at 15 min / concentration at 30 min: CD, plasma, iv; for concentration at 15 min / concentration at 30 min / Total [plasma] / Unbound [plasma]: rat, IV infusion; for unbound plasma concentration just prior to death: blood samples taken just prior to death; for Total [plasma] / Unbound [plasma]: just prior to death. From the text: For in vivo CVR and phrenic nerve activity studies, all raw signals were amplified via general purposed biological amplifier (filter settings DC – 3-5 KhZ) then digitized, calibrated and collected at a minimum of 500 Hz (1000 Hz for ECG and 2000 Hz for cardiac electrograms, and 10 KHz for phrenic nerve activity) using Notocord-HEM data acquisition and analysis software. The raw signal was filtered following acquisition with a bandpass filter set to 200–800 Hz). Vehicle (100% dimethylformamdide, DMF) or compound formulated in the vehicle was administered as a 30-minute IV infusion at 0.0167 μL/g body weight/min. […] Exposure in rats was determined in separate pharmacokinetics experiments where compounds were administered via IV dosing.

The mark [4] stands for this setting: 14 mg/kg, 14 mg/kg, read-out: Total [plasma].
Setting [5] is: 14 mg/kg, 14 mg/kg, read-out: Unbound [plasma].
[6] abbreviates: male, 7 mg/kg, 7 mg/kg, read-out: Total [plasma].
Setting [7] is: male, 7 mg/kg, 7 mg/kg, read-out: Unbound [plasma].
[8] abbreviates: male, 30 mg/kg, 30 mg/kg, read-out: Total [plasma].
Where [9] appears, read: male, 30 mg/kg, 30 mg/kg, read-out: Unbound [plasma].
[10] abbreviates: 10 mg/kg, 10 mg/kg, read-out: Total [plasma].
Setting [11] is: 10 mg/kg, 10 mg/kg, read-out: Unbound [plasma].
Where [12] appears, read: 1 mg/kg, 1 mg/kg, read-out: Total [plasma].
Setting [13] is: 1 mg/kg, 1 mg/kg, read-out: Unbound [plasma].

Like-named read-outs stand apart in the source and are kept apart here.

T1 sequence (Q14524 whole entry): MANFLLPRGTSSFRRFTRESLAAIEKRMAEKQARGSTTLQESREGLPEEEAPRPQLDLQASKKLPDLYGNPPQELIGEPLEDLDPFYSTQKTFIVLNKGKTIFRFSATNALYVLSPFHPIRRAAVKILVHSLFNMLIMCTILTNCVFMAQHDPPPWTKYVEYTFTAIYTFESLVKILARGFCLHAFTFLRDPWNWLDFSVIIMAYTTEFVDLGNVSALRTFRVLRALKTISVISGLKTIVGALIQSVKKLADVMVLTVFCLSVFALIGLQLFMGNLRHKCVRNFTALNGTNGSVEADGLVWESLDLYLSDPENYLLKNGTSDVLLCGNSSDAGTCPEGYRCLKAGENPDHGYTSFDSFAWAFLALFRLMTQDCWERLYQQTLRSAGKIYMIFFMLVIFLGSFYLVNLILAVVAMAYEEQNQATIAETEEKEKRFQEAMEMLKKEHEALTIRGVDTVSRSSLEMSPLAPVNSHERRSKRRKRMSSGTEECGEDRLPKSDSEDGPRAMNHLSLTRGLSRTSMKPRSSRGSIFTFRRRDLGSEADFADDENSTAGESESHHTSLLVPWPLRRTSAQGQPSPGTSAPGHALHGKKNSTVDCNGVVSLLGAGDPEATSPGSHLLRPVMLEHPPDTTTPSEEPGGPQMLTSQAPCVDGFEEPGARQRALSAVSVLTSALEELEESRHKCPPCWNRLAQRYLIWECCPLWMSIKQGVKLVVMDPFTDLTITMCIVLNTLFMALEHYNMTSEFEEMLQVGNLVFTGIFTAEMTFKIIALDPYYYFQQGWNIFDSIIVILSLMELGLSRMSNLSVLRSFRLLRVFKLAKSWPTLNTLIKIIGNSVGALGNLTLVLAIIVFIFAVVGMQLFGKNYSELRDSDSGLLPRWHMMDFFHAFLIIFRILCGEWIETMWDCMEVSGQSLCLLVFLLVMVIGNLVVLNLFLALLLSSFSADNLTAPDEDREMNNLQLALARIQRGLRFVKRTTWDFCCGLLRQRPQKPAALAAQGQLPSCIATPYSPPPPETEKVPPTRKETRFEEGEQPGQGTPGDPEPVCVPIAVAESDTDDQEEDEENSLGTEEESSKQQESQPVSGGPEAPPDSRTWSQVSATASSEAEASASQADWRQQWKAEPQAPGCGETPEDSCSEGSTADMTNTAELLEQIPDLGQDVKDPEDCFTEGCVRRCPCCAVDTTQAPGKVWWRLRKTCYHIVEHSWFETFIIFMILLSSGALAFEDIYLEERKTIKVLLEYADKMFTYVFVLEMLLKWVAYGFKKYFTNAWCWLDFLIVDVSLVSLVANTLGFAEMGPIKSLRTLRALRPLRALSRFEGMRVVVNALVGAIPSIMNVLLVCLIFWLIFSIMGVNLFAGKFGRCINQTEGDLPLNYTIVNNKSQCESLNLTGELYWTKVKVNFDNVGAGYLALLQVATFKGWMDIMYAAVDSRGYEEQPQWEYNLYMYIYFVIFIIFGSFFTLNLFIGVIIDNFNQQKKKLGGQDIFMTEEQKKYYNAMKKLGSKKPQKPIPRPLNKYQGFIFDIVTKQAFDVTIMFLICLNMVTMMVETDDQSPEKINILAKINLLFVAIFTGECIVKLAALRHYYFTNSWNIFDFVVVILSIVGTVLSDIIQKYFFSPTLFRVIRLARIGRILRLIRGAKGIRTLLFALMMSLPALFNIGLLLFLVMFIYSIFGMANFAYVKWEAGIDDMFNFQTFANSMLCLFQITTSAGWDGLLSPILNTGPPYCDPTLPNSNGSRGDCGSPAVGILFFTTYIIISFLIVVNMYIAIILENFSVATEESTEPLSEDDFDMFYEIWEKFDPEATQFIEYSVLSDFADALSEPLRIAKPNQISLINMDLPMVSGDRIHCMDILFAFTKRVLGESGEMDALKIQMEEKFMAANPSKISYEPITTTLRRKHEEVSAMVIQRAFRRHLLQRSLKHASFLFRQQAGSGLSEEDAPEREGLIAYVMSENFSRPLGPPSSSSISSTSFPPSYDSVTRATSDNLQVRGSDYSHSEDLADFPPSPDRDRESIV

Take `O=S(=O)(Nc1nccs1)c1cc(Cl)c(NCCCCNC[C@H]2CCCN2)cc1F` [SSCI-1]: the IC50 in series [1] and in series [2] (Rattus norvegicus) was more than 30 µM in each case. The “inhibition of diaphragm contraction / respiratory effect in HMD assay” value in series [2] is given as “does not exhibit respiratory effect”. The inhibition at 30 µM in series [2] (Rattus norvegicus, highest concentration tested of 30 μM) was less than 50%. Moreover, in series [2], the “inhibition in rat HMD assay” value is reported as “little effect”. The concentration at 15 min in series [3] (setting [4]) amounted to 88.3 ± 5.6 µM; in series [3] (setting [5]), 5.9 ± 0.4 µM; in series [3] (setting [6]), 54.4 ± 3.2 µM; in series [3] (setting [7]) it was 3.6 ± 0.2 µM; in series [3] (setting [8]) it was 230 ± 12 µM; in series [3] (setting [9]) it was 15.4 ± 0.8 µM. The concentration at 30 min in series [3] (setting [4]) turned out to be 104 ± 5.2 µM; in series [3] (setting [5]) it was 7 ± 0.3 µM; in series [3] (setting [6]), 76.7 ± 4.1 µM; in series [3] (setting [7]), 5.1 ± 0.3 µM; in series [3] (setting [8]), 252 ± 4 µM; in series [3] (setting [9]), 16.9 ± 0.3 µM. In series [3] (rat CV/R assay, no mortality), this molecule displayed an unbound plasma exposure of 16.9 µM.

On to `C[C@H](c1cccc2c1CNCC2)n1c(=O)oc2cc(S(=O)(=O)Nc3ncns3)ccc21` [SSCI-3], for which the IC50 was more than 30 µM in series [1] and 2.7 µM in series [2] (Rattus norvegicus). The concentration at 15 min in series [3] (setting [10]) is 32.1 ± 2 µM; in series [3] (setting [11]), 3.8 ± 0.2 µM; in series [3] (setting [8]), 108 ± 4.1 µM; in series [3] (setting [9]), 12.7 ± 0.5 µM. Besides, the concentration at 30 min in series [3] (setting [10]) worked out at 43.5 ± 1.8 µM; in series [3] (setting [11]), 5.1 ± 0.2 µM. The “unbound plasma concentration just prior to death” value in series [3] (rat CV/R assay) stood at 20.2 µM. The “Total [plasma]” value in series [3] (30 mg/kg, 20–21 min) is 171.2 ± 10.2a μM. Further, the “Unbound [plasma]” value in series [3] (30 mg/kg, 20–21 min) came to 20.2 ± 1.2a μM.

Turning to `N#Cc1cc(S(=O)(=O)Nc2cscn2)ccc1Oc1ccc(Cl)cc1-c1ccnn1C1CNC1` [SSCI-5], the IC50 in series [1] was more than 30 µM; in series [2] (Rattus norvegicus) it was 11 µM. For the same molecule, the concentration at 15 min in series [3] (setting [8]) was 38.2 ± 1.6 µM; in series [3] (setting [9]), 4.9 ± 0.2 µM; in series [3] (male, 60 mg/kg, 60 mg/kg, read-out: Total [plasma]), 67.7 µM; in series [3] (male, 60 mg/kg, 60 mg/kg, read-out: Unbound [plasma]), 8.7 µM. The concentration at 30 min is 42.1 ± 1.2 µM in series [3] (setting [8]) and 5.4 ± 0.2 µM in series [3] (setting [9]). Also, the “unbound plasma concentration just prior to death” value in series [3] (rat CV/R assay) was found to be 19.7 µM. Besides, in series [3] (60 mg/kg, 21–23 min), the “Total [plasma]” value came to 154a μM. For the same molecule, in series [3] (60 mg/kg, 21–23 min), the “Unbound [plasma]” value worked out at 19.7a μM.

With `COc1ccc(CCC(c2cccc3c2CNCC3)n2c(=O)oc3cc(S(=O)(=O)Nc4ncns4)c(F)cc32)cc1` (centres unmarked) [SSCI-6], the IC50 in series [1] is more than 30 µM. Also, the “Ex vivo HMD inhibition” value in series [2] (at 10 (μM), relative to 3 μM d-Tubocurarine = 100%) came out at 130% at 10. Further, the “inhibition in rat HMD assay” value in series [2] is “supramaximal inhibition”. Further, in series [3] (setting [12]), the concentration at 15 min worked out at 1.4 ± 0.2 µM and the concentration at 30 min is 1.5 µM. In series [3] (setting [13]), the concentration at 15 min was found to be 0.025 ± 0.004 µM and the concentration at 30 min came to 0.027 µM. Further, the “unbound plasma concentration just prior to death” value in series [3] (rat CV/R assay) was determined as 0.05 µM. In series [3] (1 mg/kg, 20–23 min), the “Total [plasma]” value is listed as 2.8a μM and the “Unbound [plasma]” value stood at 0.050a μM.
